In brackets after ≈: the same amount, converted by molar mass. Read-outs that look alike come from different tables or passages of the source.
Key:
in vitro = settings: African green monkey
M. tuberculosis H37Rv [1] = experiment: Conventional aerobic (MABA) culture assay, luminescence MIC; type: cell-based, Mycobacterium tuberculosis; settings: for MIC: Mycobacterium tuberculosis, 168 h
[2] = tested on: axenic amastigotes of L. amazonensis (strain MHOM/BR/76/LTB-012); settings: Table 8b
VERO cells [3] = tested on: VERO cells
peritoneal macrophages = experiment: Toxicity to peritoneal macrophages (Trypan Blue count); type: cell-based, BALB/C mouse
VERO cells [4] = experiment: Cell growth inhibition bioassay (sulforhodamine B); type: cell-based, African Green Monkey; settings: 48 h, SRB
Outline: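 Cytotoxicity is read by sulforhodamine B colorimetry following the Skehan protocol; values are growth inhibition relative to solvent-only wells.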

DU145 cells = experiment: Cell growth inhibition bioassay (sulforhodamine B); type: cell-based, human; settings: 48 h, SRB
Outline: (§1)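 Human cancer cells (MCF-7 breast, DU145 and PC3 prostate, H460 large cell lung) were treated with compounds. Growth relative to solvent control was quantified by SRB protein stain.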

M-14 cells = experiment: Cell growth inhibition bioassay (sulforhodamine B); type: cell-based, human; settings: 48 h, SRB
Outline: (§2)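 Cells were exposed to compound alongside matched solvent controls, then stained with sulforhodamine B. Percent growth inhibition was calculated from dye absorbance against the control.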

H460 cells = experiment: Cell growth inhibition bioassay (sulforhodamine B); type: cell-based, human; settings: 48 h, SRB
Outline: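 SRB colorimetric read-out; % growth inhibition vs solvent control. Human lines: MCF-7 (breast adenocarcinoma), DU145 (prostate carcinoma), PC3 (prostate adenocarcinoma), H460 (large cell lung cancer).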

MCF-7 cells = experiment: Cell growth inhibition bioassay (sulforhodamine B); type: cell-based, human; settings: 48 h, SRB
Outline: as §1

HT-29 cells = experiment: Cell growth inhibition bioassay (sulforhodamine B); type: cell-based, human; settings: 48 h, SRB
Outline: as §2

K562 cells = experiment: Cell growth inhibition bioassay (sulforhodamine B); type: cell-based, human; settings: 48 h, SRB
Outline: as §2

3T3 cells = experiment: Cell growth inhibition bioassay (sulforhodamine B); type: cell-based, mouse; settings: 48 h, SRB
Outline: as §2

[5] = target: Trypanosoma cruzi (Tulahuen C4); experiment: In vitro anti-T. cruzi activity (β-galactosidase CPRG colorimetric assay in VERO monolayer); type: cell-based
M. tuberculosis MDR = experiment: Anti-tuberculosis bioassay (tetrazolium microplate MIC); type: cell-based; settings: Mycobacterium tuberculosis, read-out: Mycobacterium MIC MDR
[6] = tested on: axenic amastigotes of L. amazonensis (strain MHOM/BR/76/LTB-012); experiment: microbe, parasite or virus in culture; settings: Leishmania amazonensis
[7] = Cytotoxicity on VERO cells (MTT), anti-T. cruzi study; settings: African green monkey, VERO cells
[8] = Toxicity to peritoneal macrophages (Trypan Blue count); type: cell-based, BALB/C mouse; settings: BALB/C, mouse
L. amazonensis = settings: intralesional, compounds 5 mg/kg/day, Glucantime 33 mg Sb(v)/kg/day; for Mean lesion wt (mg) (±SD): BALB/c mice n=10; for % Variation of lesion wt / % reduction of parasite burden in the lesion: vs control
L. braziliensis PER006 = experiment: Activity against macrophages infected with Leishmania amastigotes; settings: Leishmania braziliensis, Macrophage, read-out: IC50 L. braziliensis PER006
M. tuberculosis H37Rv [9] = experiment: Anti-tuberculosis bioassay (tetrazolium microplate MIC); type: cell-based; settings: Mycobacterium tuberculosis, read-out: Mycobacterium MIC H37Rv, Table 5
L. peruviana LCA08 = experiment: Activity against macrophages infected with Leishmania amastigotes; settings: Leishmania peruviana, Macrophage, read-out: IC50 L. peruviana LCA08
Protocol: A cloned line of Leishmania amazonensis(strain MHOM/BR/76/LTB-012) was used in all experiments. Axenically grown amastigote forms of L. amazonensis were maintained by weekly subpassages in MAA/20 medium (Sereno and Lemesre, Antimicrobial Agents and Chemotherapy 41, 972-976 (1997)) at 32±1° C. in 25 cm^2 tissue culture flasks. L. peruviana (strain MHOM/PE/LCA08) and L. braziliensis (strainMHOM/PE/PER006) were maintained in the promastigote stage in a biphasic medium (blood agar with 0.89% NaCl, pH 7.4) at 24° C., with sub-passage every 3 to 4 days. Promastigotes (5×10^6 parasites) were then transferred to 25 cm2 tissue culture flasks containing 5 ml of M199 medium supplemented with 10% foetal bovine serum (FBS), pH 7.4. After 4 days, exponential phase promastigotes were centrifuged for 10 minutes at 1500 g and 4° C. The supernatant was discarded and replaced by fresh M199 medium supplemented with 20% FBS, pH 5.5. Axenic amastigotes transformation was then induced by increasing the temperature to 34° C. and incubating for 96 h (Teixeira et al., Parasitology Research 88, 963-968 (2002)).
Extracted cells were immediately deposited on sterile 4×4 mm cover glasses and placed in each well of a 96-well plate. Plates were incubated for 24 h at 37° C., 5% CO2 to allow cell adhesion (Castillo et al, Journal of Ethnopharmacology 112, 410-414 (2007)). Pre-warmed complete M199 medium was used twice to remove non-adherent cells. A neutral red method (Fautz et al., Mutation Research 253, 173-179 (1991)) was employed to determine cell concentration. Approximately 7×10^4 viable cells were deposited in each well for adhesion.
Infection of macrophages by amastigotes was determined as follows. […] Twelve hours after infection, a solution of the compounds to be tested was added to the cultures at various concentrations and maintained at 37° C. in 5% CO2 for a further forty-eight hours more. The plates were fixed with methanol and stained with 10% Giemsa stain. The percentage of infected macrophages was determined microscopically at 100 times magnification. The number of intracellular amastigotes was determined in 300 cells. Following Delorenzi et al. Antimicrobial Agents and Chemotherapy, 45, 1349-1354 (2001)) the percentage of infection rate (% IR) of each culture was calculated as follows: % IR=100−(infection rate of the treated culture/infection rate of the untreated culture)×100.
All experiments were performed in triplicate. ANOVA was used to test for statistical significance of differences (Epi-Info, Statview student program). The total parasite burden was calculated as a mean number of amastigotes per cells multiplied by the number of infected macrophages.

VERO cells [10] = experiment: VERO cells IC50 (Table 5); type: cell-based, African green monkey; settings: Chlorocebus sabaeus

SMILES: CO[C@H]1/C=C/O[C@@]2(C)Oc3c(C)c(O)c4c(O)c(c(/C=N/N5CCN(C)CC5)c(O)c4c3C2=O)NC(=O)/C(C)=C\C=C\[C@H](C)[C@H](O)[C@@H](C)[C@@H](O)[C@@H](C)[C@H](OC(C)=O)[C@@H]1C [Rifampin, reference compound]
- IC50 (in vitro): 97.2 µg/mL (≈ 118 µM)
- MIC (M. tuberculosis H37Rv [1]; aerobic, 7 days, H37Rv): 0.09 µg/mL (≈ 0.109 µM)
- Selectivity Index H37Rv (M. tuberculosis H37Rv [1]; VERO vs MABA MIC): 1025.8

SMILES: CC(C)=NNc1ncnc2sc3c(c12)CCCC3 [II-44]
- Cytotoxicity VERO cell (VERO cell): 32.7 µg/mL
- IC50 ([2]; read-out: L. amazonensis IC50): 10.6 µM
- Cytotoxicity VERO Lab B (VERO cells [3]): 10.0
- IC50 (peritoneal macrophages): 62 µM
- GI50 in indicated cell line: VERO (VERO cells [4]): 3.7 µg/mL (≈ 14.2 µM)
- MIC MABA (M. tuberculosis H37Rv [1]; aerobic, 7 days, H37Rv): 62.4 µg/mL (≈ 240 µM)
- GI50 in indicated cell line: DU145 (DU145 cells): 3.0 µg/mL (≈ 11.5 µM)
- GI50 in indicated cell line: M-14 (M-14 cells): 6.1 µg/mL (≈ 23.4 µM)
- GI50 in indicated cell line: H460 (H460 cells): 2.4 µg/mL (≈ 9.22 µM)
- GI50 in indicated cell line: MCF-7 (MCF-7 cells): 3.2 µg/mL (≈ 12.3 µM)
- GI50 in indicated cell line: HT-29 (HT-29 cells): 8.6 µg/mL (≈ 33 µM)
- GI50 in indicated cell line: K562 (K562 cells): 3.5 µg/mL (≈ 13.4 µM)
- GI50 in indicated cell line: 3T3 (3T3 cells): <0.98 µg/mL
- T. cruzi IC50 Lab A ([5]; Lab A): 3.2 µg/mL
- T. cruzi IC50 Lab B ([5]; Lab B): 3.7 µg/mL

SMILES: Clc1ccc(/C=N\Nc2ncnc3sc4c(c23)CCCC4)cc1 [II-28]
- MIC (M. tuberculosis MDR): 6.25 µg/mL (≈ 18.2 µM)
- IC50 ([6]; read-out: IC50 Cytotoxicity Against Amastigotes): 3.3 µM
- IC50 ([6]; read-out: L. amazonensis IC50): 0.6 µM
- IC50 ([7]; Cytotoxicity VERO Lab B, Lab B): 7 µg/mL (≈ 20.4 µM)
- IC50 ([7]; IC50 - VERO Cytotoxicity, Table 2): 27 µg/mL (≈ 78.8 µM)
- Selectivity Index [2]: 85.2
- IC50 at 48 h ([8]; Cytotoxicity Macrophages IC50): 48.8 µM
- IC50 at 48 h ([8]; IC50 Cytotoxicity Against Macrophages): > 10 µM
- Mean lesion size (mm) (L. amazonensis; after 4 weeks treatment): 3.6 mm
- Mean parasite quantification (per 10^6) in lesion per mg (±SD) (L. amazonensis; after 4 weeks treatment): 0.92 (±0.32) amastigotes (×10^6)/mg
- Mean lesion wt (mg) (±SD) (L. amazonensis; after 4 weeks treatment): 60.4 (±31.3) mg
- % Variation of lesion wt (L. amazonensis; after 4 weeks treatment): 0%
- % reduction of parasite burden in the lesion (L. amazonensis; after 4 weeks treatment): 46%
- Mean lesion size (mm) (L. amazonensis; after 7 weeks treatment): 5.2 mm
- Mean parasite quantification (per 10^6) in lesion per mg (±SD) (L. amazonensis; after 7 weeks treatment): 1.26 (±0.02) amastigotes (×10^6)/mg
- Mean lesion wt (mg) (±SD) (L. amazonensis; after 7 weeks treatment): 169.1 (±15.3) mg
- % Variation of lesion wt (L. amazonensis; after 7 weeks treatment): −90%
- % reduction of parasite burden in the lesion (L. amazonensis; after 7 weeks treatment): 25%
- GI50 (VERO cells [4]; Chlorocebus sabaeus, Vero, read-out: GI50 in indicated cell line: VERO): 3 µg/mL (≈ 8.75 µM)
- IC50 (L. braziliensis PER006): 5.9 µg/mL (≈ 17.2 µM)
- MIC (M. tuberculosis H37Rv [1]; aerobic, 7 days, H37Rv): > 100 µg/mL
- GI50 (DU145 cells; Homo sapiens, DU-145, read-out: GI50 in indicated cell line: DU145): 5 µg/mL (≈ 14.6 µM)
- GI50 (M-14 cells; Homo sapiens, M14, read-out: GI50 in indicated cell line: M-14): > 62.5 µg/mL
- GI50 (H460 cells; Homo sapiens, NCI-H460, read-out: GI50 in indicated cell line: H460): 4.4 µg/mL (≈ 12.8 µM)
- GI50 (MCF-7 cells; Homo sapiens, MCF7, read-out: GI50 in indicated cell line: MCF-7): 2.9 µg/mL (≈ 8.46 µM)
- GI50 (HT-29 cells; Homo sapiens, HT-29, read-out: GI50 in indicated cell line: HT-29): 5.2 µg/mL (≈ 15.2 µM)
- GI50 (K562 cells; Homo sapiens, K562, read-out: GI50 in indicated cell line: K562): 2.3 µg/mL (≈ 6.71 µM)
- MIC (M. tuberculosis H37Rv [9]): 12.5 µg/mL (≈ 36.5 µM)
- IC50 (L. peruviana LCA08): > 10 µg/mL
- GI50 (3T3 cells; Mus musculus, NIH3T3, read-out: GI50 in indicated cell line: 3T3): 6.4 µg/mL (≈ 18.7 µM)
- IC50 (VERO cells [10]): > 80 µg/mL
- Selectivity Index Lab B ([5]; IC50, VERO/IC50, T. cruzi, Lab B): 1.6
- inhibition at 10 µg/mL ([5]; Trypanosoma cruzi, TULAHUEN, Vero, 120 h, 10 μg/mL of each compound, 120 hours, read-out: T. cruzi Inhib. (%)): 74.7%
- IC50 ([5]; Trypanosoma cruzi, TULAHUEN, Vero, Lab A, read-out: T. cruzi IC50 Lab A): 1.6 µg/mL (≈ 4.67 µM)
- IC50 ([5]; Trypanosoma cruzi, TULAHUEN, Vero, Lab B, read-out: T. cruzi IC50 Lab B): 4.5 µg/mL (≈ 13.1 µM)
- IC50 ([5]; Trypanosoma cruzi, TULAHUEN, Vero, Table 2, read-out: IC50 - T. cruzi): 6.5 µg/mL (≈ 19 µM)

— patent US9061984B2 (University of Louisville Research Foundation, Inc., priority 2008, dated 2015)
